Among the data in patent US7582611B2, “Motilide compounds” (Pfizer Inc., priority 2005, dated 2009) are MIC and EC50 values, retold here.

≈ marks a conversion by molar mass, not a printed value.

The test system of experiment [1] is Streptococcus pneumoniae ATCC 6301. Nature of the experiment: Evaluation of antibacterial activity (MIC, serial dilutions on 96-well microtiter plates). To be noted: ATCC6301, read-out: Antibacterial Activity (MIC, μg/mL). Type of experiment: cell-based.
The target of experiment [2] is T1, Motilin Receptor (Oryctolagus cuniculus, UniProt G1T803).
T1 construct: strips of longitudinal smooth muscle were sliced from the segments; from tissue; host or cells: rabbit duodenum longitudinal smooth muscle strips
Nature of the experiment: Tissue based assay for motilin agonist potency (rabbit duodenum contractility). Type of experiment: cell-based. As to conditions: rabbit duodenum strips, contraction normalized to 1 μM carbachol; read-out: Motilin Receptor Agonist Activity (EC50). Here is the method: The motilin agonist potencies of compounds of this invention were evaluated using a tissue based assay, using rabbit duodenum tissue-based contractility assay, generally following the procedure of Depoortere et al., J. Gastrointestinal Motility, 1, 150-159 (1989), the disclosure of which is incorporated herein by reference. Briefly, this method measures the ability of a compound to induce contractions in rabbit duodenal tissue, a motilin receptor-bearing tissue contractilely responsive to motilin.
Strips of rabbit duodenum were tested and qualified for use in the assay by as follows. Segments of rabbit duodenum, 20-30 cm distal to the pylorus were split longitudinally. The mucosa was removed and 2×2×15 mm strips of longitudinal smooth muscle were sliced from the segments. The strips were bathed in oxygenated Krebs solution at 37° C., with 1.5 g of tension, and contractions measured auxotonically.
The carbachol was then washed away by changing the organ bath buffer twice. The strips were washed again 20±5 minutes following the carbachol contraction. Following this last wash a dose response study was initiated within 10±5 min. Each compound tested was dissolved in dimethylsulfoxide (DMSO) to a final concentration of 10 mM. A series of seven 10× serial dilutions in water was prepared, so that the concentration of the seventh serial dilution was 1.0×10^−6 mM. The first through fifth serial dilutions of the compound were applied, starting with 200 μL of the most dilute solution. After each application, there was a wait of 2±0.5 min, until the response was stable, before the application of the next dose (the next higher concentration serial dilution). The dose was increased in 10-fold increments until a small response was observed. Subsequent doses were the increased in 2- to 5-fold increments, until the maximum response was obtained. At 2±0.5 min after the last drug addition, the strips were dosed with 1 μM carbachol.
The EC50 (concentration producing a half-maximal effect) was calculated as follows. The basal tension was subtracted from the compound-induced tension for each reading. The data points were normalized against the response obtained from 1 μM carbachol at the end of the experiment. The concentration of compound was plotted against the response and fitted to the following equation: R=(Rmax·C)/(EC50+C) where R is the contraction response, Rmax is the maximal contraction response, and C is the concentration of compound. Both R and Rmax are expressed as a fraction of the 1 μM carbachol contraction and range from 0 to 1.

T1 sequence (G1T803 1-400): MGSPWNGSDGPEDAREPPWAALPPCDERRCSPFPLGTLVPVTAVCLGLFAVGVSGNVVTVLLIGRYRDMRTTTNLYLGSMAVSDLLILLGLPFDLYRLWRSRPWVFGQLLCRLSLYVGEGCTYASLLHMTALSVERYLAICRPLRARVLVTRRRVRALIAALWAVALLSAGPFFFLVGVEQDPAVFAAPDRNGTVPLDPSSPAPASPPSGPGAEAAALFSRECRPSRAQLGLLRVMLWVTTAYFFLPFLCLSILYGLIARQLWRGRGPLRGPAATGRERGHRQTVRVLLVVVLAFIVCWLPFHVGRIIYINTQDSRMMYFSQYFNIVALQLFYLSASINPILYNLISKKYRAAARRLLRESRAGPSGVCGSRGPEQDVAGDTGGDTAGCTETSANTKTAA

As for `CC[C@H]1OC(=O)[C@H](C)[C@@H](O[C@H]2C[C@@](C)(OC)[C@@H](O)[C@H](C)O2)[C@H](C)[C@@H](O[C@@H]2O[C@H](C)C[C@H](N(C)C(C)C)[C@H]2O)[C@@]2(C)CC(C)=C(O2)[C@H](C)C(=O)[C@]1(C)OC` [GM-611, reference compound], in experiment [1], the MIC came out at 128 µg/mL (≈ 169 µM). For the same molecule, in experiment [2], the EC50 turned out to be 11 nM.
For `CC[C@H]1OC(=O)[C@H](C)[C@@H](O[C@H]2C[C@@](C)(OC)[C@@H](O)[C@H](C)O2)[C@H](C)[C@@H](O[C@@H]2O[C@H](C)C[C@H](N(C)C[C@H](C)O)[C@H]2O)[C@](C)(O)C[C@@H](C)[C@H](OCCOC)[C@H](C)[C@@H](O)[C@]1(C)O` [Compound A-6] the same measures were 128 µg/mL (≈ 153 µM) and 1100 nM.
For `CC[C@H]1OC(=O)[C@H](C)[C@@H](O[C@H]2C[C@@](C)(OC)[C@@H](O)[C@H](C)O2)[C@H](C)[C@@H](O[C@@H]2O[C@H](C)C[C@H](N(C)C(C)C)[C@H]2O)[C@](C)(O)C[C@@H](C)[C@H](OCC(=O)Nc2cnccn2)[C@H](C)[C@@H](O)[C@]1(C)O` [Compound A-70] the same measures were 128 µg/mL (≈ 142 µM) and 60 nM.
The corresponding values for `CCCNC(=S)NCCO[C@@H]1[C@H](C)[C@@H](O)[C@](C)(O)[C@@H](CC)OC(=O)[C@H](C)[C@@H](O[C@H]2C[C@@](C)(OC)[C@@H](O)[C@H](C)O2)[C@H](C)[C@@H](O[C@@H]2O[C@H](C)C[C@H](N(C)C(C)C)[C@H]2O)[C@](C)(O)C[C@H]1C` [Compound A-57] are 128 µg/mL (≈ 141 µM) and 210 nM.
For the molecule `CCOC(=O)CO[C@@H]1[C@H](C)[C@@H](O)[C@](C)(O)[C@@H](CC)OC(=O)[C@H](C)[C@@H](O[C@H]2C[C@@](C)(OC)[C@@H](O)[C@H](C)O2)[C@H](C)[C@@H](O[C@@H]2O[C@H](C)C[C@H](N(C)C3CCC3)[C@H]2O)[C@](C)(O)C[C@H]1C` [Compound A-10], the MIC in experiment [1] is over 128 µg/mL. In experiment [2], the EC50 was found to be 680 nM.
The corresponding values for `CC[C@H]1OC(=O)[C@H](C)[C@@H](O[C@H]2C[C@@](C)(OC)[C@@H](O)[C@H](C)O2)[C@H](C)[C@@H](O[C@@H]2O[C@H](C)C[C@H](N(C)C(C)C)[C@H]2O)[C@](C)(O)C[C@@H](C)[C@H](OS(=O)(=O)N(C)C)[C@H](C)[C@@H](O)[C@]1(C)O` [Compound A-19] are 128 µg/mL (≈ 147 µM) and 91 nM.
For `CCNC(=O)CO[C@@H]1[C@H](C)[C@@H](O)[C@](C)(O)[C@@H](CC)OC(=O)[C@H](C)[C@@H](O[C@H]2C[C@@](C)(OC)[C@@H](O)[C@H](C)O2)[C@H](C)[C@@H](O[C@@H]2O[C@H](C)C[C@H](N(C)C(C)C)[C@H]2O)[C@](C)(O)C[C@H]1C` [Compound A-31] the same measures were over 128 µg/mL and 67 nM.
For `CC[C@H]1OC(=O)[C@H](C)[C@@H](O[C@H]2C[C@@](C)(OC)[C@@H](O)[C@H](C)O2)[C@H](C)[C@@H](O[C@@H]2O[C@H](C)C[C@H](N(C)C(C)C)[C@H]2O)[C@](C)(O)C[C@@H](C)[C@H](OCc2csc(C)n2)[C@H](C)[C@@H](O)[C@]1(C)O` [Compound A-26] the same measures were 128 µg/mL (≈ 146 µM) and 480 nM.
For the molecule `CC[C@H]1OC(=O)[C@H](C)[C@@H](O[C@H]2C[C@@](C)(OC)[C@@H](O)[C@H](C)O2)[C@H](C)[C@@H](O[C@@H]2O[C@H](C)C[C@H](N(C)C(C)C)[C@H]2O)[C@](C)(O)C[C@@H](C)[C@H](OCC(=O)OC)[C@H](C)[C@@H](O)[C@]1(C)O` [Compound A-22], in experiment [1], the MIC worked out at 128 µg/mL (≈ 153 µM). Besides, in experiment [2], the EC50 was found to be 140 nM.
As to `CC[C@H]1OC(=O)[C@H](C)[C@@H](O[C@H]2C[C@@](C)(OC)[C@@H](O)[C@H](C)O2)[C@H](C)[C@@H](O[C@@H]2O[C@H](C)C[C@H](N(C)C(C)C)[C@H]2O)[C@](C)(O)C[C@@H](C)[C@H](OCC(=O)NCCOC)[C@H](C)[C@@H](O)[C@]1(C)O` [Compound A-63], the MIC in experiment [1] worked out at 128 µg/mL (≈ 146 µM). For the same molecule, the EC50 in experiment [2] was 50 nM.
The corresponding values for `CC[C@H]1OC(=O)[C@H](C)[C@@H](O[C@H]2C[C@@](C)(OC)[C@@H](O)[C@H](C)O2)[C@H](C)[C@@H](O[C@@H]2O[C@H](C)C[C@H](N(C)C(C)C)[C@H]2O)[C@](C)(O)C[C@@H](C)[C@H](OCC(=O)NCCO)[C@H](C)[C@@H](O)[C@]1(C)O` [Compound A-34] are 128 µg/mL (≈ 148 µM) and 120 nM.
Consider `CC[C@H]1OC(=O)[C@H](C)[C@@H](O[C@H]2C[C@@](C)(OC)[C@@H](O)[C@H](C)O2)[C@H](C)[C@@H](O[C@@H]2O[C@H](C)C[C@H](N(C)C(C)C)[C@H]2O)[C@](C)(O)C[C@@H](C)[C@H](OCC(=O)NC2CCC2)[C@H](C)[C@@H](O)[C@]1(C)O` [Compound A-45], for which the MIC in experiment [1] was determined as 128 µg/mL (≈ 146 µM). The EC50 in experiment [2] came out at 28 nM.
Consider `CC[C@H]1OC(=O)[C@H](C)[C@@H](O[C@H]2C[C@@](C)(OC)[C@@H](O)[C@H](C)O2)[C@H](C)[C@@H](O[C@@H]2O[C@H](C)C[C@H](N(C)C(C)C)[C@H]2O)[C@](C)(O)C[C@@H](C)[C@H](OCC(=O)NC)[C@H](C)[C@@H](O)[C@H]1C` [Compound A-71], for which, in experiment [1], the MIC was over 128 µg/mL. Also, the EC50 in experiment [2] came out at 90 nM.
As to `CC[C@H]1OC(=O)[C@H](C)[C@@H](O[C@H]2C[C@@](C)(OC)[C@@H](O)[C@H](C)O2)[C@H](C)[C@@H](O[C@@H]2O[C@H](C)C[C@H](N(C)C(C)C)[C@H]2O)[C@](C)(O)C[C@@H](C)[C@H](OCC(=O)N(C)C)[C@H](C)[C@@H](O)[C@H]1C` [Compound A-72], the MIC in experiment [1] is over 128 µg/mL. Besides, in experiment [2], the EC50 was 270 nM.
For `CC[C@H]1OC(=O)[C@H](C)[C@@H](O[C@H]2C[C@@](C)(OC)[C@@H](O)[C@H](C)O2)[C@H](C)[C@@H](O[C@@H]2O[C@H](C)C[C@H](N(C)C(C)C)[C@H]2O)[C@](C)(O)C[C@@H](C)[C@H](OCC(N)=O)[C@H](C)[C@@H](O)[C@]1(C)O` [Compound A-12] the same measures were 64 µg/mL (≈ 77.9 µM) and 52 nM.
For `CC[C@H]1OC(=O)[C@H](C)[C@@H](O[C@H]2C[C@@](C)(OC)[C@@H](O)[C@H](C)O2)[C@H](C)[C@@H](O[C@@H]2O[C@H](C)C[C@H](N(C)C(C)C)[C@H]2O)[C@](C)(O)C[C@@H](C)[C@H](OCC(=O)NC(C)C)[C@H](C)[C@@H](O)[C@]1(C)O` [Compound A-53], the MIC in experiment [1] is 128 µg/mL (≈ 148 µM). The EC50 in experiment [2] turned out to be 140 nM.
The corresponding values for `CC[C@H]1OC(=O)[C@H](C)[C@@H](O[C@H]2C[C@@](C)(OC)C[C@H](C)O2)[C@H](C)[C@@H](O[C@@H]2O[C@H](C)C[C@H](N(C)C(C)C)[C@H]2O)[C@](C)(O)C[C@@H](C)[C@H](OCC(=O)NC)[C@H](C)[C@@H](O)[C@]1(C)O` [Compound A-61] are 128 µg/mL (≈ 156 µM) and 17 nM.
For `CC[C@H]1OC(=O)[C@H](C)[C@@H](O[C@H]2C[C@@](C)(OC)[C@@H](O)[C@H](C)O2)[C@H](C)[C@@H](O[C@@H]2O[C@H](C)C[C@H](N(C)C(C)C)[C@H]2O)[C@](C)(O)C[C@@H](C)[C@H](OCc2cc(C)on2)[C@H](C)[C@@H](O)[C@]1(C)O` [Compound A-27] the same measures were 128 µg/mL (≈ 149 µM) and 110 nM.
The corresponding values for `CC[C@H]1OC(=O)[C@H](C)[C@@H](O[C@H]2C[C@@](C)(OC)[C@@H](O)[C@H](C)O2)[C@H](C)[C@@H](O[C@@H]2O[C@H](C)C[C@H](N(C)C3CCC3)[C@H]2O)[C@](C)(O)C[C@@H](C)[C@H](OCC(N)=O)[C@H](C)[C@@H](O)[C@]1(C)O` [Compound A-13] are over 128 µg/mL and 220 nM.
On to `CC[C@H]1OC(=O)[C@H](C)[C@@H](O[C@H]2C[C@@](C)(OC)[C@@H](O)[C@H](C)O2)[C@H](C)[C@@H](O[C@@H]2O[C@H](C)C[C@H](N(C)C3CCC3)[C@H]2O)[C@](C)(O)C[C@@H](C)[C@H](OC(C)=O)[C@H](C)[C@@H](O)[C@]1(C)O` [Compound A-24], for which the MIC in experiment [1] is over 128 µg/mL. In addition, the EC50 in experiment [2] was 860 nM.
For `CC[C@H]1OC(=O)[C@H](C)[C@@H](O[C@H]2C[C@@](C)(OC)[C@@H](O)[C@H](C)O2)[C@H](C)[C@@H](O[C@@H]2O[C@H](C)C[C@H](N(C)C(C)C)[C@H]2O)[C@](C)(O)C[C@@H](C)[C@H](OCC(=O)NCCN2CCOCC2)[C@H](C)[C@@H](O)[C@]1(C)O` [Compound A-48] the same measures were 64 µg/mL (≈ 68.5 µM) and 140 nM.
For `CCOC(=O)NCCO[C@@H]1[C@H](C)[C@@H](O)[C@](C)(O)[C@@H](CC)OC(=O)[C@H](C)[C@@H](O[C@H]2C[C@@](C)(OC)[C@@H](O)[C@H](C)O2)[C@H](C)[C@@H](O[C@@H]2O[C@H](C)C[C@H](N(C)C(C)C)[C@H]2O)[C@](C)(O)C[C@H]1C` [Compound A-64] the same measures were 64 µg/mL (≈ 72.8 µM) and 100 nM.
